Laboratory results taken from US7312358B2, “Pharmaceutically active sulfanilide derivatives” (Laboratoires Serono SA, priority 2000, dated 2007).
pIC50, pKi: −log10 of the molar value. Values belong to the molecule of their own block, whether it stands above or below them.

How the values were obtained:
[1] = target: hV1a (Homo sapiens, UniProt P37288); assay: In vitro competition binding assay on hV1a receptor with scintillating proximity assay; design: expressed in transfected cells; host or cells: CHO cells (membranes); settings: membranes from CHO cells expressing hV1a receptor; radiolabel [125I]-LVA; SPA; read-out: Binding Affinity Human V1a Ki
Procedure: b) In Vitro Competition Binding Assay on hV1a Receptor with Scintillating Proximity Assay
This assays allows to determine the affinity of the test compounds for the V1a receptor. Membranes from CHO cells expressing the hV1a receptor were resuspended in buffer containing 50 mM Tris-HCl, pH 7.4, 5 mM MgCl2 and 0.1% BSA (w/v). The membranes (5-10 μg) were mixed with 0.2 mg wheat-germ aglutinin (WGA) SPA bead (type A) and 0.03 nM of the radiolabel [^125I]-LVA (LVA being Linear Vasopressin Antagonist and is an analogue of AVP for competition binding experiments). Non-specific binding was determined in the presence of 1 μM AVP. The total assay volume was 100 μl. The plates (Corning 0 NBS plate) were incubated at room temperature for 2 hours and counted on a Mibrobeta plate counter. The tests compounds were used in concentrations of 30 μM, 10 μM, 1 μM, 300 nM, 100 nM, 10 nM, 1 nM, 100 pM, 10 pM. The competition binding data were analysed using the iterative, nonlinear, curve-fitting program, Graph pad “Prism”.
(§1) The binding affinities to the Via receptor of the sulfanilide derivatives claimed in the formula I were assessed using the above described in vitro biological assay. The values refer to the binding affinity (IC50; HM) of the example compounds according to formula I to the V1a receptor. From the values shown in Table 1 it can be derived that said test compounds according to formula I do show a significant binding to the Via receptor.

[2] = target: T1, hOT-R (Homo sapiens, UniProt P30559); assay: Inhibition of oxytocin mediated Ca2+-mobilization by FLIPR (HEK cells); type: cell-based; settings: fluo-4, OT 40 nM
T1 construct: expressed in transfected cells; host or cells: HEK (Human Embryonic Kidney) cells
T1 sequence (P30559 1-389): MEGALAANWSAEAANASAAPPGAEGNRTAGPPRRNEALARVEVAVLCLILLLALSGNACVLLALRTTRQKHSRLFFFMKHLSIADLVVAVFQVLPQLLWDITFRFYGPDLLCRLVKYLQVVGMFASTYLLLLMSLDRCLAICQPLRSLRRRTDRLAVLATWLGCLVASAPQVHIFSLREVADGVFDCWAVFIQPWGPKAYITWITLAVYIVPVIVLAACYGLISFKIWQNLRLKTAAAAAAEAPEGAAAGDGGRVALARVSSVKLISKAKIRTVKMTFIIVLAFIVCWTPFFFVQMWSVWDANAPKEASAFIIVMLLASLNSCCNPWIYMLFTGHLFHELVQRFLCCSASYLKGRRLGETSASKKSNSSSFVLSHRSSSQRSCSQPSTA
Excerpt: c) Functional Assay No. 1: Inhibition of Oxytocitn Mediated Ca^2+-Mobilization by FLIPR (Fluorescent Imaging Plate Reader)
FLIPR is a machine for fluorescence imaging using a laser that is capable of illuminating a 96-well plate and a means of simultaneously reading each well thus enabling rapid measurements on a large number of samples.
This assay intends to show the inhibition of the OT/OT-R mediated calcium mobilisation—being necessary to cause uterine contractions—by using test compounds of formula (I).
Preparing the plates: FLIPR-plates were pre-coated with PLL (Poly-L-Lysine) 10 μg/ml+0.1% gelatine to attach the HEK (Human Embryonic Kidney) cells for 30 min up to 2 days at 37° C. The cells were plated out into 96-well plates (60000 cells/well).
Labelling with fluo-4: […] fluo-4 (fluorescent marker) were dissolved in 20 μl pluronic acid (20% in DMSO). The dissolved fluo-4 was then diluted in 10 ml DMEM (Dubecco's Minimal Essential Medium-F12 medium without FCS (Fetal Calf Serum). The medium was removed from the plates, followed by one wash with DNEM-F12 medium. Now, 100 μl of the DMEM-F12 medium containing fluo-4 were added and the cells incubated for 1.5-2 h (HEK-cells). The cells now contain the fluorescent marker.
Buffer: 145 mM NaCl, 5 mM KCl, 1 mM MgCl2, 10 mM Hepes, 10 mM Glucose, EGTA (Ethylene-bis oxyethylene nitrilo tetraacetic acid). Adjust to pH 7.4.
Performance of the assay: A minimum of 80 μl/well of antagonists (5×) in the above buffer (1×) were prepared (96-well plates). The antagonists were added to the well-plates at different concentrations (30 μM, 10 μM, 1 μM, 300 nM, 100 nM, 10 nM, 1 nM, 100 pM, 10 pM).
OT is added at a concentration of 40 nM.
The fluorescent marker being sensitive to the amount of Ca^2+ mobilized within the cell may be quantified by the FLIPR machine.
The activities of the sulfanilide derivatives according to formula I were assessed using the above described in vitro biological assay. The values refer to the capacity of the example compounds according to formula I to effectively antagonize oxytocin-induced intracellular Ca^2+-mobilization mediated by the oxytocin receptor.

[3] = target: T2, hOT receptor (Homo sapiens, UniProt P30559); assay: In vitro competition binding assay on hOT receptor with scintillating proximity assay; settings: membranes from HEK293EBNA cells expressing hOT receptor; radiolabel [125I]-OVTA; SPA; read-out: Binding Affinity Human OT-R Ki
T2 construct: expressed in transfected cells; host or cells: HEK293EBNA cells (membranes)
T2 sequence (P30559 1-389): T1 sequence (P30559 1-389)
Procedure: a) In Vitro Competition Binding Assay on hOT Receptor with Scintillating Proximity Assay (Pharmaceutical Manufacturing International, 1992, p. 49-53 by Cook, N. D. et al)
This assays allows to determine the affinity of the test compounds for the OT receptor. Membranes from HEK293EBNA cells expressing the hOT receptor were resuspended in buffer containing 50 mM Tris-HCl, pH 7.4, 5 mM MgCl2 and 0.1% BSA (w/v). The membranes (2-4 μg) were mixed with 0.1 mg wheat-germ aglutinin (WGA) SPA bead (type A) and 0.2 nM of the radiolabel [^125I]-OVTA (OVTA being […] and is an analogue of OT for competition binding experiments). Non-specific binding was determined in the presence of 1 μM Oxytocin. The total assay volume was 100 μl. The plates (Corning (D NBS plate) were incubated at room temperature for 30 min and counted on a Mibrobeta plate counter. The tests compounds were used in concentrations of 30 μM, 10 μM, 1 μM, 300 nM, 100 nM, 10 nM, 1 nM, 100 pM, 10 pM. The competition binding data were analysed using the iterative, nonlinear, curve-fitting program, “Prism”.
as §1, with “oxytocin” for “Via”, “μM)” for “HM)”, “Oxytocin” for “V1a”

[4] = test system: oxytocin-induced uterine contractions in the rat; assay: In vivo model for inhibition of uterine contractions; settings: anaesthetised DES-treated non-pregnant female rat, route not given
Procedure: f) In Vivo Model for Inhibition of Uterine Contractions
The assay intends to show the biological effect of tested compounds in an in vivo model of preterm labor, premature birth.
Non-pregnant Charles River CD(SD) BR female rats (9-10 weeks old, 200-250 g) were treated at 18 and 24 hours before the experiment with 250 μg/kg, i.p. diethylstilbestrol (DES). For the assay, the animal was anaesthetised by urethane (1.75 g/kg, i.p.) and placed on an homeothennic operating table. The trachea was isolated and cannulated with a suitable polyethylene (PE) tubing. A midline incision at the hypogastrium level was made and one uterine horn exposed, its cephalic end cannulated with a PE240 tubing and, after filling the internal cavity with 0.2 ml of sterile physiological saline, connected to a “Gemini” amplifying/recording system via a P231D Gould Statham pressure transducer. For the i.v. route of administration of the test compounds, one jugular vein was isolated and cannulated with a PE60 tubing connected to a butterfly needle to allow the administration by a dispensing syringe. In the case of intraduodenal administration of the test compounds, the duodenum was isolated and similarly cannulated through a small incision in its wall. One carotid artery was also isolated and cannulated with PE60 catheter and connected to a suitable syringe for blood sample collection (see below). After a stabilization period, the same dose of oxytocin was repeatedly injected intravenously at 30-min intervals. […] Further injections of the same dose of oxytocin were then made for a suitable time after treatment to assess inhibitory effects of the compounds under study. The contractile response of the uterus to oxytocin was quantified by measuring the intra-uterine pressure and the number of contractions. The effect of the reference and test compounds were evaluated by comparing pre- and post-treatment pressure values. In addition, at 2, 30, 90 and 210 minutes after test compound administration, a 0.5-ml blood sample was withdrawn from the cannulated carotid artery of each experimental animal. Plasma was obtained by standard laboratory procedure and the resulting samples were stored at −20° C.
The activities of the sulfanilide derivatives claimed in the Formula I were assessed using the above described in vivo biological assay. The values refer to the capacity of the example compound according to Formula I to effectively antagonize oxytocin-induced uterine contractions in the rat.

hV1a, sequence (P37288 whole entry): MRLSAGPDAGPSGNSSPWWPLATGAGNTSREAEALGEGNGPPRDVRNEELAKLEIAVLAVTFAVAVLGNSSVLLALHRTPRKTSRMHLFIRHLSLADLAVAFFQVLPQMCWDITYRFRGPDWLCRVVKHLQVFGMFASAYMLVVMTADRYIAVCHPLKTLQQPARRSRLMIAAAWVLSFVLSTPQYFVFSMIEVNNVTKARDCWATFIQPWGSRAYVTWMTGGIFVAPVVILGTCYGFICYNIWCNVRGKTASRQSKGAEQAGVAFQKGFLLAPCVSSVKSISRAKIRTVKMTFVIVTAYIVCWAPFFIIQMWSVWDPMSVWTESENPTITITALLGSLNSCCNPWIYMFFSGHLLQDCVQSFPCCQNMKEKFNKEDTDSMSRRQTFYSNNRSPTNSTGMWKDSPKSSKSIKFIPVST

pKi [1]: 6.43
Compound: Cc1ccc(N(CC(=O)NCC(O)c2ccccc2)S(=O)(=O)c2ccc(C)cc2)cc1 (stereo not shown) [N-(2-Hydroxy-2-phenyl-ethyl)-2-[(toluene-4-sulfonyl)-p-tolyl-amino]-acetamide]

pIC50 [2]: 8.15 | pKi [3]: 9.10
Compound: O=C(CN(c1ccc(Cl)cc1)S(=O)(=O)c1ccc(OCCN2CCOCC2)cc1)NN=C1C(=O)Nc2ccccc21 [Example 55, N-(4-chlorophenyl)-4-[2-(4-morpholinyl)ethoxy]-N-{2-oxo-2-[2-(2-oxo-1,2-dihydro-3H-indol-3-ylidene)hydrazino]ethyl}benzenesulfonamide]
% Reduction of Uterine Contraction ([4]; dose 0.3 mg/kg): 4.3 ± 1.7% | % Reduction of Uterine Contraction ([4]; dose 1 mg/kg): 18.2 ± 3.7% | % Reduction of Uterine Contraction ([4]; dose 3 mg/kg): 39.8 ± 5.1% | % Reduction of Uterine Contraction ([4]; dose 10 mg/kg): 41.7 ± 12.5% | % Reduction of Uterine Contraction ([4]; dose 30 mg/kg): 71.3 ± 6.4%

pKi [1]: 6.30
Compound: O=C(CN(c1cccc(Br)c1)S(=O)(=O)c1ccccc1)N/N=C/c1ccccc1O [N-(3-Bromo-phenyl)-N-(2-hydroxy-benzylidene-hydrazinocarbonylmethyl)-benzenesulfonamide]

pKi [1]: 6.87
Compound: COc1ccc(N(CC(=O)Nc2ccc(C)cc2C)S(=O)(=O)c2ccc(OC)c(OC)c2)cc1 [2-[(3,4-Dimethoxy-benzenesulfonyl)-(4-methoxy-phenyl)amino]-N-(2,4-dimethyl-phenyl)-acetamide]

pKi [1]: 6.12
Compound: O=C(CN(c1ccc(Cl)cc1)S(=O)(=O)c1ccccc1)N/N=C/c1ccccc1O [N-(4-Chloro-phenyl)-N-(2-hydroxy-benzylidene-hydrazinocarbonylmethyl)-benzenesulfonamide]

pKi [1]: 7.35
Compound: COc1ccc(N(CC(=O)Nc2ccc(C)cc2C)S(=O)(=O)c2ccccc2)cc1 [2-[Benzenesulfonyl-(4-methoxy-phenyl)-amino]-N-(2,4-dimethyl-phenyl)-acetamide]

pKi [1]: 6.41
Compound: C/C(=N\NC(=O)CN(c1ccc(Br)cc1)S(=O)(=O)c1ccccc1)c1ccccc1O [drawing 134, N-(4-Bromo-phenyl)-N-[1-(2-hydroxy-phenyl)-ethylidenehydrazinocarbonylmethyl]-benzenesulfonamide]

pKi [1]: 6.37
Compound: COc1ccc(N(CC(=O)NCCSc2ccccn2)S(=O)(=O)c2ccc(C)cc2)cc1 [2-[(4-Methoxy-phenyl)-(toluene-4-sulfonyl)-amino]-N-[2-(pyridin-2-ylsulfanyl)-ethyl]-acetamide]

pKi [1]: 6.43 | pKi [3]: 6.61
Compound: CCOc1ccc(S(=O)(=O)N(CC(=O)N2CCc3ccccc3C2)c2ccc(C)cc2)cc1 [N-[2-(3,4-Dihydro-1H-isoquinolin-2-yl)-2-oxo-ethyl]-4-ethoxy-N-p-tolyl-benzenesulfonamide]

pIC50 [2]: 7.87 | pKi [3]: 9.22
Compound: CN(C)CCCOc1ccc(S(=O)(=O)N(CC(=O)N/N=C2\C(=O)Nc3ccccc32)c2ccc(Cl)cc2)cc1 [Example 67, N-(4-chlorophenyl)-4-[3-(dimethylamino)propoxy]-N-{2-oxo-2-[(2Z)-2-(2-oxo-1,2-dihydro-3H-indol-3-ylidene)hydrazino]ethyl}benzenesulfonamide]
% Reduction of Uterine Contraction ([4]; dose 0.3 mg/kg): 9.3 ± 2.5% | % Reduction of Uterine Contraction ([4]; dose 1 mg/kg): 20.8 ± 2.2% | % Reduction of Uterine Contraction ([4]; dose 3 mg/kg): 34.4 ± 3.9% | % Reduction of Uterine Contraction ([4]; dose 10 mg/kg): 57.1 ± 4.8% | % Reduction of Uterine Contraction ([4]; dose 30 mg/kg): 67.4 ± 7.1%

pKi [1]: 7.24
Compound: O=C(CN(c1ccc(Br)cc1)S(=O)(=O)c1ccccc1)N1CCc2ccccc2C1 [N-(4-Bromo-phenyl)-N-[2-(3,4-dihydro-1H-isoquinolin-2-yl)-2-oxo-ethyl]-benzenesulfonamide]

pKi [1]: 6.10
Compound: C/C(=N\NC(=O)CN(c1ccc(Br)cc1)S(=O)(=O)c1ccccc1)c1ccccc1O [drawing 139, N-(4-Bromo-phenyl)-N-[1-(2-hydroxy-phenyl)-ethylidene-hydrazinocarbonylmethyl]-benzenesulfonamide]
